From publication PMC12338828, “Evaluation of organotin (IV) dithiocarbamate compounds as potential anti-leukemia agents towards CCRF-CEM (CCL-119) cell line: Cytotoxic, apoptotic, cell cycle and genotoxic study” (PLOS One, 2025)
Where “and” joins values, the source holds several entries; their conditions need not be identical. Identical values can stand only once. Like-named read-outs stand apart in the source and are kept apart here.

Key:
CCL-119 cells [1] = assay: MTT cytotoxicity assay; conditions: for cell viability at 0.31 µM / cell viability at 0.63 µM / cell viability at 1.25 µM / cell viability at 2.50 µM / cell viability at 5.00 µM: single replicates n1-n3, untreated = 100.00; for cell viability at 2.50 µM: 2.5 µM; for IC50: read-out: IC50 (µM) CCL-119, 24 hours of exposure, mean ± SEM, n = 3
Protocol: The T-acute lymphoblastic leukemia cell line, CCRF-CEM (CCL-119™), and a non-cancerous cell, WIL2-NS (CRL-8155™), were purchased from the American Type Culture Collection (ATCC). Both are suspension types of cells and were cultured in Roswell Park Memorial Institute Medium 1640 (RPMI-1640) (Sigma-Aldrich), supplemented with 10% Fetal Bovine Serum (FBS) (Capricorn Scientific) and 1% penicillin-streptomycin (Nacalai Tesque) to obtain the complete growth medium and were incubated at 37 °C with a 5% CO2 incubator. Both suspension cells are used for tests when the cells’ passage becomes passage 3–10 (maximum).
All stock solutions of the organotin (IV) dithiocarbamate compounds were prepared at 10 mM and dissolved in dimethyl sulphoxide (DMSO) (ChemAR®). The stock solutions were stored at 4°C; fresh dilutions were made by adding the RPMI-1640 medium before the experiment. The dilution is carried out using the serial dilution method to obtain the desired concentrations, which are 5 µM, 2.5 µM, 1.25 µM, 0.63 µM, 0.32 µM, and 0.16 µM in this study. Vincristine (VCR) is used as a positive control in this study.
Both CCL-119 and WIL2-NS cells were seeded in a 96-well plate at a final concentration of 5 x 10^5 cells/well and treated with 5 µM, 2.5 µM, 1.25 µM, 0.63 µM, 0.32 µM, and 0.16 µM of organotin (IV) dithiocarbamate compound for 24 hours at 37°C with 5% CO2. VCR was used as a positive control in this study, while cells without treatment were used as a negative control. After 24 hours of exposure, 20 µL of MTT (Merck) salt solution was added into each well and incubated for another 4 hours. The plate was wrapped with aluminium foil as MTT salt is light sensitive. After 4 hours, the purple crystal formazan was formed. All the medium was removed carefully from each well, and 200 µL DMSO was added to each well to dissolve the purple formazan crystal. Then, the plates were incubated for an additional 15 minutes. The results were analyzed and recorded using an ELISA microplate reader at 570 nm. The data was then plotted into a graph, and IC50 values were determined.
The selectivity index (SI) is determined by dividing the cytotoxic activity (IC50 value) of each compound on a non-cancerous cell line (WIL2-NS) by the leukemia cell line (CCL-119). […] WIL2- NS cell lines were selected as the comparator because it is a non-cancerous human B lymphoblast cell line, which is like CCL-119 (T-lymphoblastic leukemia), derived from lymphocytes. This choice ensures that comparisons are made between biologically similar cell types, minimizing variability that could arise from differences in tissue origin or lineage.

CCL-119 cells [2] = assay: Mode of cell death, Annexin V-FITC/PI staining (flow cytometry); type: cell-based; conditions: for Early Apoptosis (Q4) / Late Apoptosis (Q2) / Necrosis (Q1) / Viable (Q3): 24 hours at IC50, single replicates n1-n3; for cell death through apoptosis (population of cells): early + late apoptosis
Protocol: The mode of cell death can be observed through the Annexin V-FITC/PI staining (BD, USA). The result of this test is either apoptosis or necrosis. […] VCR was used as a positive control, while cells without any treatment were used as a negative control. Then, the plate was incubated for 24 hours. After the incubation, the cell suspension in each well was collected into different Eppendorf tubes. The tubes were then centrifuged for 5 minutes at 1500 rpm at 4°C. After the centrifuge, the supernatant in the tubes was removed, and the cell pellets were washed twice with cold PBS. Then, centrifuge the tubes again and remove the supernatant. Next, 100 µL of Annexin V binding buffer was resuspended in each tube, and 5 µL Annexin V-FITC was pipetted into the tube to stain the cells for 15 minutes at room temperature, dark. After that, 5 µL of propidium iodide was piped into the tube for 5 minutes. The staining process is done in dark conditions. Lastly, the sample was transferred into the Falcon tube, and each tube was resuspended in 400 µL of Annexin V binding buffer. The sample was analyzed using a flow cytometer (BD FACS Canto II) within one hour.

CCL-119 cells [3] = assay: Cell cycle analysis (PI/RNase staining); type: cell-based; conditions: 24 hours at IC50; single replicates n1-n3
Protocol: The cells were cultured and seeded in a 6-well plate at 1 x 10^6 cells/mL. VCR was used as a positive control, and untreated cells were used as a negative control in this assay. The concentration of the compounds and VCR was followed by IC50 values that were taken from the MTT assay.
After 24 hours of incubation, all cells in the plate were transferred to the Eppendorf tube and centrifuged for 5 minutes at 4°C at 1500 rpm. After centrifuging, the supernatant was removed, and cells were washed with 500 µL cold PBS three times. The pellet was fixed by using 70% ethanol overnight at −20°C. Next, the samples were stained with 500 µL of PI/RNase staining buffer and incubated for 15 minutes. The samples were then transferred into Falcon tubes. The data was recorded using a flow cytometer and analyzed using ModFit LT software.

CCL-119 cells [4] = assay: Alkaline comet assay; type: cell-based
Protocol: VCR was used as a positive control, and untreated cells were used as a negative control in this assay. The cells were incubated for 1 hour. After incubation, cells in each well were transferred to the Eppendorf tube to centrifuge for 5 minutes at 4°C by using a refrigerated microcentrifuge. The supernatant was removed, and the samples were washed with 1 mL of cold PBS. This process was repeated 3 times. After completion of the process, the supernatant was removed, and the pellet was left for a while on top of the ice while preparing the slide.
About 140 µL of normal melting agar (NMA) is pipetted on top of the fully frosted slide, and a cover slip is put on the agar for 5 minutes or until the agar fully solidifies. After that, the cover slip was removed, and 80 µL of low melting agar (LMA) was added to an Eppendorf tube containing the pellet of cells. The suspension was then transferred into a frosted slide with NMA agar. The cover slip was then put back on top of the frosted slide for 10 minutes or until dry. Next, the slide was transferred into a Coplin jar that contained lysis buffer solution and Triton X-100. The slides were then incubated at 4°C overnight. The slides were arranged on an electrophoresis tank filled with electrophoresis buffer for 20 minutes. Electrophoresis is done for another 20 minutes at 25 V with 300 mA. The slides were washed with a neutralization buffer solution 3 times at a 5-minute time interval. Finally, 30 µL of ethidium bromide (50 µg/mL) was added, and the slide was observed by using fluorescence microscopy (OLYMPUS BX51TR). CometScore software is used to analyze the DNA damage of the cells. The comet assay was performed under alkaline conditions (pH > 13) to detect both single- and double-strand DNA breaks.

WIL2-NS cells = test system: WIL2-NS cells; set-up: method as in Rasli et al. (2023); conditions: non-cancerous cells; 24 hours of exposure; graph referred to earlier paper; ref Rasli et al. (2023); cited from earlier work
Jurkat E6.1 cells = test system: Jurkat E6.1 cells; set-up: method as in Awang et al. (2015) [26]; conditions: ref Awang et al. (2015) [26]; cited from earlier work
[5] = 1 hour of exposure, single replicates n1-n3

SMILES	cell viability at 0.31 µM (CCL-119 cells [1]; 24 hours)	cell viability at 0.63 µM (CCL-119 cells [1]; 24 hours)	cell viability at 1.25 µM (CCL-119 cells [1]; 24 hours)	cell viability at 2.50 µM (CCL-119 cells [1]; 24 hours)	cell viability at 5.00 µM (CCL-119 cells [1]; 24 hours)	Early Apoptosis (Q4) (CCL-119 cells [2])	Late Apoptosis (Q2) (CCL-119 cells [2])	Necrosis (Q1) (CCL-119 cells [2])	Viable (Q3) (CCL-119 cells [2])	cells in G0/G1 phase (CCL-119 cells [3])	cells in G2/M phase (CCL-119 cells [3])	cells in S phase (CCL-119 cells [3])	% DNA intensity (CCL-119 cells [4]; [5])	Tail moment (CCL-119 cells [4]; [5])	IC50 (WIL2-NS cells) [µM]	IC50 (CCL-119 cells [1]) [µM]	cell death through apoptosis (population of cells) (CCL-119 cells [2]; 24 hours, treated at IC50) [%]	also measured
CCN(CC)C(=S)[S][Sn]([c]1ccccc1)([c]1ccccc1)[c]1ccccc1 [ODTC 5, triphenyltin (IV) diethyl dithiocarbamate]	37.70% and 42.75% and 36.81%	39.38% and 30.79% and 37.35%	35.19% and 39.06% and 29.63%	37.67% and 28.99% and 27.66%	16.16% and 17.11% and 21.93%	10.9% and 47.3% and 16.6%	6.4% and 17.1% and 18.5%	12.9% and 0.1%	69.8% and 35.6% and 64.8%	64.02% and 86.49% and 54.56%	30.58% and 13.51% and 45.44%	5.4% and 0%	13.8528% and 11.0312% and 9.872%	15.0222 A.U and 13.1179 A.U and 9.676 A.U	0.79 ± 0.05	–	–	Selectivity Index (SI) (CCL-119 cells [1]; IC50 WIL2-NS / IC50 CCL-119, 24 hours): 4.16; population of cells undergoing necrosis (CCL-119 cells [2]; 24 hours, treated at IC50): 4.37%; Tail moment (CCL-119 cells [4]; 1 hour of exposure, mean ± SEM): 12.61 ± 1.56 A.U; percentage of DNA intensity in the tail (CCL-119 cells [4]; 1 hour of exposure, mean ± SEM): 11.59 ± 1.18%
CC(C)N(C(=S)[S][Sn]([CH3])([CH3])[S]C(=S)N(C(C)C)C(C)C)C(C)C [ODTC 6, dimethyltin (IV) diisopropyl dithiocarbamate]	58.47% and 122.11% and 74.00%	54.60% and 100.55% and 42.63%	68.83% and 73.56% and 74.68%	43.76% and 67.94% and 56.55%	56.86% and 66.74% and 57.64%	44.7% and 48.9% and 45.6%	33.5% and 23.8% and 26.2%	0.1% and 0.3% and 0.2%	21.6% and 27% and 28.1%	65.00% and 60.00% and 55.00%	4.80% and 5.00% and 2.80%	30.20% and 35.00% and 42.20%	4.005% and 4.8% and 5.931%	3.51 A.U and 4.102 A.U and 5.014 A.U	5 ± 1.04	3.1 ± 1.08	74.2	DNA damage / genotoxic effect (in words) (CCL-119 cells [4]): no DNA damage
CCN(CC)C(=S)[S][Sn]([CH3])([CH3])[S]C(=S)N(CC)CC [ODTC 7, dimethyltin (IV) diethyl dithiocarbamate]	53.85% and 25.00% and 27.93%	22.79% and 38.51% and 14.94%	25.40% and 25.00% and 5.26%	11.18% and 20.05% and 9.03%	4.79% and 42.34% and 14.76%	24.7% and 24.4% and 29.9%	70.3% and 71.5% and 65.3%	0.7% and 0.4%	4.4% and 3.7% and 4.2%	70.20% and 67.80% and 60.00%	1.80% and 0.20% and 1.00%	28.00% and 32.00% and 39.00%	6.521% and 7.002% and 7.823%	5.822 A.U and 6.511 A.U and 7.52 A.U	0.5 ± 0.34	0.5 ± 0.3	95.6	DNA damage / genotoxic effect (in words) (CCL-119 cells [4]; 1 hour of exposure, damage when TM > 5 A.U. and TI > 10%): no DNA damage
CCCCN(C(=S)[S][Sn]([c]1ccccc1)([c]1ccccc1)[c]1ccccc1)c1ccccc1 [triphenyltin (IV) butylphenyl dithiocarbamate]	–	–	–	–	–	–	–	–	–	–	–	–	–	–	–	–	–	mode of cell death in Jurkat E6.1 cells (Jurkat E6.1 cells): predominant induction of early-phase apoptotic cell death
